# Patent publication US12577597B2, “Transgenic microorganisms and synthesis of piperazic acid, piperazic acid containing products, and derivatives thereof” (Washington University, priority 2017, dated 2026)
# What was measured:
# SfaC-His6 (PzbB) = experiment: Hemin influence on SfaC (PzbB) N5-OH-L-ornithine in vitro assay, piperazic acid quantified by HPLC/MS; assay type: biochemical, Streptomyces flaveolus; details: hemin 10 μM in DMSO vs DMSO alone; SfaC-His6 2 μM; N5-OH-L-orn 1 mM; 50 mM Tris.HCl pH 8.0; aliquots at 30, 60, 90 sec
# SfaC-His6 (PzbB), sequence (as listed by the source): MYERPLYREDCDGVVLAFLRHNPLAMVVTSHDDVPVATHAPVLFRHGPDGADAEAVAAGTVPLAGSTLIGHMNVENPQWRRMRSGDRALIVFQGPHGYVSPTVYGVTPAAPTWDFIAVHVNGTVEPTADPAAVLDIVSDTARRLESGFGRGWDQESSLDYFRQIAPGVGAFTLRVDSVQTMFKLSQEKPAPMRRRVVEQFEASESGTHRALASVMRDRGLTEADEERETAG
# Procedure: As expected for a bona fide cofactor, adding hemin increases the rate of turnover.
# 100 μL of reaction in 50 mM Tris.HCl at pH 8.0 was set up with N^5—OH-L-orn (1 mM), SfaC-His6 (2 μM), and either hemin in DMSO (10 μM) or just DMSO. The two reactions were incubated at […]. Then, 30 μL aliquots were removed at 30, 60, and 90 sec, and combined with 30 μL 6% 5-sulfosalicylic acid. The cloudy mixture was centrifuged, and the supernatant was used for analysis. Sample was analyzed for piperazic acid by HPLC/MS. Analysis was performed using an lmtakt Intrada Amino Acid column (50×3 mm, 3 μm pore size) installed on an Agilent 1260 Infinity HPLC connected to an Agilent 6420 Triple-Quad mass spectrometer using the following method: T=0, 86% B; T=3, 86% B; T=10, 0% B; T=11, 0% B; T=12, 86% B; T=14, 86% B; A: water+100 mM ammonium formate, B: acetonitrile+0.1% formic acid; 0.6 mL/min. An extracted ion count chromatogram at m/z 131.1 (monoisotopic mass of protonated piperazic acid) was used to detect piperazic acid. For quantification, an SRM transition (m/z 131.1=>56.3; source voltage, 86 V; collision energy, 37 V) was monitored, and a standard curve (second order polynomial, R2=0.9996) was generated between 0.1 μM and 100 μM using a chemically synthesized L-piperazic acid dihydrochloride standard. The concentrations in time were plotted, and fitted to a line. […]
# [1] = test system: Streptomyces flaveolus pzbB (sfaC) deletion mutant; assay type: cell-based
# Text: FIG. 5 is a series of LC/MS spectra showing the detection of sanglifehrin, a Piz—containing compound produced by Streptomyces flaveolus. Four major isobaric isomers of sanglifehrin A detected in WT S. flaveolus fermentation extracts. As expected from the results above, an unmarked gene deletion of pzbB (sfaC) from S. flaveolus abrogates sanglifehrin production.
# Data indicating L-Piz successfully penetrates at least one Piz-compound producing actinomycete was obtained, followed by subsequent incorporation into a Piz drug-like compound sanglifehrin (see e.g., FIG. 5). […] Four major isobaric isomers of sanglifehrin A detected in WT S. flaveolus fermentation extracts. As expected from the results in FIG. 5, an unmarked gene deletion of pzbB (sfaC) from S. flaveolus abrogates sanglifehrin production.
Compound,"increase of the slope (rate of reaction, piperazic acid formation) by hemin (SfaC-His6 (PzbB))","toxicity (qualitative) ([1]; 50 μM exogenous L-Piz, S. flaveolus)",cell penetrance ([1]; inferred from restored sanglifehrin production with 50 μM exogenous L-Piz in S. flaveolus)
Fe^+3-protoporphryin IX [Hemin],14.4 times,–,–
"O=C(O)C1CCCNN1 [L-Piz, L-piperazic acid]",–,qualitatively nontoxic,cell penetrant
